In article PMC6152234, “Specialized Metabolites of the Lichen Vulpicida pinastri Act as Photoprotective Agents” (Molecules : A Journal of Synthetic Chemistry and Natural …, 2017):
In brackets after ≈: the same amount, converted by molar mass. Where two headings read alike, the source gives them in different places. Marks after values point to notes of the source that are not given here. Values belong to the compound of their own block, whether it stands above or below them.

Experiments:
[1] = cited from earlier work; for SPF: commercial organic UV-filters, lower limit for commercial sunscreen 6
[2] = DPPH assay (reducing activity); format: biochemical
Method: Reducing activity of compounds 1–3 and crude extract on the 1,1′-diphenyl-2-picrylhydrazyl free radical (DPPH) and scavenging activity on superoxide anion were measured as previously described. Briefly, the scavenging activity of the lichen compounds on DPPH was measured using the Matsukawa method with some modifications. A reaction mixture containing 100 µL of DPPH (0.5 mM) in methanol and 10 µL of the lichen compound solutions in DMSO to give final concentrations of 19, 56, 167 and 500 µg/mL per well, was distributed in each microplate well. To allow results comparison and due to the presence of extract, concentrations are expressed in µg/mL. The absorbances were recorded at 540 nm after 30 min.
(§1) For both assays, each concentration and all tests were done in triplicate and the results averaged. Ascorbic acid was used as a positive control. The percentage inhibition at steady state for each dilution was used to calculate the IC50 values. This gave the amount of antioxidant required (measured as the concentration of the stock solution added to the reaction mixture) to either scavenge 50% of O2^− or 50% of DPPH radicals: the lower the values, the higher the scavenging activity towards O2^−.

[3] = NBT assay (superoxide anion scavenging, non-enzymatic NADH/PMS); format: biochemical
Method: Measurements of superoxide anion scavenging activity in 96-well microplates was based on the non-enzymatic method previously described with some modifications. The reaction mixture in the sample wells consisted of NADH (78 µM), nitro-blue tetrazolium (NBT) (50 µM), phenazine methosulfate (PMS) (10 µM), and lichen compounds (10, 20, 40, 80 µg/mL). The reagents were dissolved in 16 mM tris-hydrochloride buffer, at pH = 8 except for all the lichen compounds/extract which were dissolved in DMSO. After 5 min of incubation at room temperature, the spectrophotometric measurement was performed at 560 nm against blanks (without PMS nor sample).
as §1

HaCaT cells [4] = experiment: Cytotoxic and photocytotoxic activities before and after UVA irradiation; format: cell-based, human; settings: for IC50: Homo sapiens, light or radiation study; for Photo-Irritancy Factor (PIF), formal PIF: formal PIF = *1.0 = Cmax(−UV)/Cmax(+UV)
Method: Briefly, 100 µL per well of a cell suspension of HaCaT cells (ATCC) at 120,000 cells/mL were maintained in a RPMI culture medium with 5% of calf serum at 37 °C under 5% CO2 for 24 h for formation of monolayers. At t = 24 h, two 96-well plates per test chemical were preincubated for 1 h with seven different concentrations of the tested compounds and extract (ranging from 1 µg/mL to 200 µg/mL). Chlorpromazine was used as the positive control. To allow results comparison and due to the presence of extract, concentrations are expressed in µg/mL.
For both assays, each concentration and all tests were done in triplicate and the results averaged. The percentage inhibition at steady state for each dilution was used to calculate the IC50 values.

[5] = In vitro screening method for sun protection indexes (SPF, PF-UVA, λc, ISP, SUI) from UV absorbance 290–400 nm; format: physicochemical
Method: Photoprotective effectiveness is evaluated through photoprotective indexes such as SPF, PF-UVA, and critical wavelength (λc) (an indicator of the filter capacity to protect in the UVA range), as well as Spectral Uniformity Index (SUI) and Ideal Spectral Profile (ISP), two indexes recently defined by Diffey to focus on protection across the entire ultraviolet spectrum. They calculate the goodness of fit of the spectral profile to the ideal flat profile. SPF and PF-UVA measure the filter efficacy against UVB or UVA. SPF measurement is currently determined in vivo through determination of the erythemal reaction on human volunteers. For economical and ethical reasons, many alternative in vitro methods have been developed to measure SPF and also PF-UVA, λc or SUI and ISP. Unfortunately, despite concerted efforts around the globe between different commissions, none of them guarantees a good correlation with in vivo measurements. Moreover, all these in vitro methods require an amount of active raw material generally ≥100 mg and prevent the evaluation of compounds in minute amounts. The photoprotective indexes have been then determined thanks to a new method (see SM) especially developed to cope with the low availability of the compounds. Twelve commercial organic UV-filters, the photoprotective indexes of which were published (Table S3 in SM), encompassing a 1–24 SPF range were used for the development. It can be noted that the SPF values of benzophenone-3 (oxybenzone), PEG-25 PABA, homosalate, polysilicone 15 and 4-Methylbenzylidene Camphor are under 6, the value commonly accepted as the lower limit for commercial sunscreen. However, the efficient value of commercialized emulsion can be explained by the formulation of several organic and mineral filters. The similarity of the results (r^2 = 0.98 for published SPF vs. herein SPF, see Figure S1 in SM) supported the new method validity. Routinely, ethylhexyl methoxycinnamate (OMC) was used as positive control. Based on the SPF, λc, PF-UVA, SUI and ISP values obtained with marketed organic filters and on their UV range protection (Table S3 in SM), a decision tree was built to categorize the filters (Figure 3). Considering the herein SPF values of the filters cited above (around 2), the first condition to select a candidate is SPF > 2. Restricted UVA or UVB filters can be discriminated through the λc value (>370 nm) and PF-UVA (>2) for UVA and SUI (>1.2) and ISP (<90) for UVB. A large spectral protection (UVA + UVB) could be evaluated by combining the four criteria.
A new in vitro screening method based on spectrophotometric data was used to evaluate sun protection indexes such as SPF, PF-UVA, the critical wavelength λc, ISP and SUI. Its development was first conducted in a cuvette using twelve commercial organic filters encompassing a large range of SPF values (1 < SPF < 25) and then transposed in a 96-wells plate. Following the International recommendations, maximal concentrations never overtook 10% whatever the commercial filters or the lichens extracts or compounds considered. This new method faces some product availability limitation, which is a common shortcoming for natural products or metabolites (see all development in SM).
The scheme of solution preparation to record the experimental values is depicted in Figure 9. The sample (S4) was prepared at 0.02 mg/mL from stock solutions of filter candidate (S2) and of emulsion (S1) (See emulsion preparation in SM) taking into account the maximal concentration. The experimental absorbances Aλ were recorded in the 290–400 nm range versus a blank solution (S3) in a cuvette with a double beam spectrophotometer or in a 96-wells plate filled with 180 µL of solution by well. […] The diagram is described for final volumes of 50 mL, 100 µL, 25 mL and 25 mL for S1, S2, S3 and S4 solutions, respectively. Smaller volumes can easily be prepared. Solutions S2 and S4 were prepared in duplicate. […]

[6] = Stability of photoprotection indexes after UVA or UVB irradiation; format: physicochemical; settings: for photostability: UVA and UVB
Method: One hundred eighty microliters of solution in 96-well plates were irradiated by UVA (2 J/cm^2) or UVB ([…]). The absorbances were then recorded and photoprotective indexes were calculated as described above. The stability was evaluated by comparison between indexes described previously (Section 3.5.1) and obtained before and after irradiation. Two independently prepared solutions were studied and OMC was used as a positive control.

[7] = NBT antioxidant assay of compounds in combination (isobologram, combination index); format: biochemical
Method: For each drug ratio (Tables S5 and S6 in SM), the antioxidant inhibition was evaluated as previously described (2.6.1).
The antagonistic, synergistic or additive effect of the combination depends on the combination index value (CI) (Equation (1)). […] (IC50)X is the value of the IC50 of compound X alone.
For both assays, each concentration and all tests were done in triplicate and the results averaged.

HaCaT cells [8] = settings: human
Method: For each drug ratio (Tables S7 and S8 in SM), the cytotoxicity was evaluated as previously described (2.7.1).
For both assays, each concentration was done in triplicate and the results averaged.

[9] = set-up: method as in earlier work; settings: ref 37 (Rancan); cited from earlier work
[10] = HaCaT cells, with UVA irradiation, read-out: IC50 ± SD With Irradiation
[11] = HaCaT cells, without irradiation, read-out: IC50 ± SD Without Irradiation
[12] = before irradiation, new in vitro method

Compound: Cc1ccc(/C=C2/C(=O)C3(C)CCC2C3(C)C)cc1 (stereo not drawn) [4-Methylbenzylidene Camphor]
SPF [1]: under 6

DPPH Assay IC50 ± SD [2]: 12.5 ± 0.5 µg/mL
NBT Assay IC50 ± SD [3]: 3.0 ± 0.4 µg/mL
Compound: O=C1O[C@H]([C@@H](O)CO)C(O)=C1O [Ascorbic acid, reference compound]

Compound: CN(C)CCCN1c2ccccc2Sc2ccc(Cl)cc21 [Chlorpromazine, reference compound]
IC50 (HaCaT cells [4]; [10]): 2.4 ± 0.3 µg/mL (≈ 7.53 µM)
IC50 (HaCaT cells [4]; [11]): 13.2 ± 1.7 µg/mL (≈ 41.4 µM)
Photo-Irritancy Factor (PIF) (HaCaT cells [4]; PIF = IC50(−UV)/IC50(+UV), PIF < 5 no phototoxic potential): 5.5 ^d

ISP (Ideal Spectral Profile) ([5]; before irradiation): 105%
PF-UVA ([5]; before irradiation): 1.6
SUI (Spectral Uniformity Index) ([5]; before irradiation): 1.1
critical wavelength (λc) ([5]; before irradiation): 330 nm
SPF [5, 12]: 10.4
SPF ([5]; cuvette, dissolved in DMSO): 10.1
SPF ([5]; cuvette, dissolved in THF): 9.6
decrease in indexes after irradiation ([6]; UVA or UVB irradiation): 25%
Compound: CCCCC(CC)COC(=O)C=Cc1ccc(OC)cc1 (stereo not drawn) [OMC, ethylhexyl methoxycinnamate, reference compound]

ISP (Ideal Spectral Profile) ([5]; before irradiation): 61%
PF-UVA ([5]; before irradiation): 1.8
SUI (Spectral Uniformity Index) ([5]; before irradiation): 1.9
critical wavelength (λc) ([5]; before irradiation): 386 nm
SPF [5, 12]: 4.1
photostability [6]: photostable in the UVA and UVB ranges
DPPH Assay IC50 ± SD [2]: 80.0 ± 8.0 µg/mL
NBT Assay IC50 ± SD [3]: 70.0 ± 23.0 µg/mL
Compound: COC(=O)/C(=C1/OC(=O)C(c2ccc(OC)cc2)=C1O)c1ccccc1 [Pinastric acid, pinastric acid]
IC50 (HaCaT cells [4]; [10]): > 200 µg/mL
IC50 (HaCaT cells [4]; [11]): > 200 µg/mL
Photo-Irritancy Factor (PIF), formal PIF (HaCaT cells [4]): *1.0 ^c
Superoxide anion scavenging activity (% inhibition) ([7]; Table S7, pinastric acid alone 17.5 µg/mL): 25.0%
Superoxide anion scavenging activity (% inhibition) ([7]; Table S7, pinastric acid alone 35.0 µg/mL): 37.0%
Superoxide anion scavenging activity (% inhibition) ([7]; Table S7, pinastric acid alone 52.5 µg/mL): 44.0%
Superoxide anion scavenging activity (% inhibition) ([7]; Table S7, pinastric acid alone 70.0 µg/mL): 50.0%

ISP (Ideal Spectral Profile) ([5]; before irradiation): 19%
PF-UVA ([5]; before irradiation): 3.9
SUI (Spectral Uniformity Index) ([5]; before irradiation): 7.6
photostability [6]: photostable in the UVA and UVB ranges
DPPH Assay IC50 ± SD [2]: 55.0 ± 8.0 µg/mL
NBT Assay IC50 ± SD [3]: 30.0 ± 3.0 µg/mL
Compound: COC(=O)/C(=C1/OC(=O)C(c2ccccc2)=C1O)c1ccccc1 [Vulpinic acid, vulpinic acid]
IC50 (HaCaT cells [4]; [10]): > 200 µg/mL
IC50 (HaCaT cells [4]; [11]): > 200 µg/mL
Photo-Irritancy Factor (PIF), formal PIF (HaCaT cells [4]): *1.0 ^c
Superoxide anion scavenging activity (% inhibition) ([7]; Table S6, vulpinic acid alone 7.5 µg/mL): 22.0%
Superoxide anion scavenging activity (% inhibition) ([7]; Table S6, vulpinic acid alone 15.0 µg/mL): 30.0%
Superoxide anion scavenging activity (% inhibition) ([7]; Table S6, vulpinic acid alone 22.5 µg/mL): 42.0%
Superoxide anion scavenging activity (% inhibition) ([7]; Table S6, vulpinic acid alone 30.0 µg/mL): 50.0%
Percentage of cytotoxicity (HaCaT cells [8]; 5 µg/mL): 0.0%
Percentage of cytotoxicity (HaCaT cells [8]; 20 µg/mL): 0.0%

SPF ([5]; cuvette, dissolved in DMSO): 1.8
Compound: CCCCC(CC)COc1ccc(-c2nc(-c3ccc(OC)cc3)nc(-c3ccc(OCC(CC)CCCC)cc3O)n2)c(O)c1 (stereo not drawn) [anisotriazine, Bis-Ethylhexyloxyphenol Methoxytphenyl Triazine, reference compound]
published SPF ([1]; reference value, ref 6–8 of supplement): 23.9

Compound: COc1ccc(C(=O)c2ccccc2)c(O)c1 [benzophenone-3 (oxybenzone), benzophenone-3]
SPF [1]: under 6

Compound: CC1CC(OC(=O)c2ccccc2O)CC(C)(C)C1 (stereo not drawn) [homosalate]
SPF [1]: under 6

Compound: PEG-25 PABA
SPF [1]: under 6

Compound: usnic acid
ISP (Ideal Spectral Profile) ([5]; before irradiation): 53%
PF-UVA ([5]; before irradiation): 1.8
critical wavelength (λc) ([5]; before irradiation): 364 nm
SPF [5, 12]: 3.9
variation in the SPF values after UVA irradiation ([6]; UVA 2 J/cm^2): +17%
photostability [6]: photostable in the UVA and UVB ranges
DPPH Assay IC50 ± SD [2]: >500.0 µg/mL
NBT Assay IC50 ± SD [3]: 24.0 ± 9 µg/mL
IC50 ± SD With Irradiation (HaCaT cells [4]; HaCaT cells, with UVA irradiation): 47.0 ± 10.0 µg/mL
IC50 ± SD Without Irradiation (HaCaT cells [4]; HaCaT cells, without irradiation): 33.0 ± 2.0 µg/mL
phototoxic potential (HaCaT cells [4]; from PIF, human keratinocyte cell line, UVA): no phototoxic potential
Superoxide anion scavenging activity (% inhibition) ([7]; Table S6, usnic acid alone 6.0 µg/mL): 32.0%
Superoxide anion scavenging activity (% inhibition) ([7]; Table S6, usnic acid alone 12.0 µg/mL): 40.0%
Superoxide anion scavenging activity (% inhibition) ([7]; Table S6, usnic acid alone 18.0 µg/mL): 46.0%
Superoxide anion scavenging activity (% inhibition) ([7]; Table S6, usnic acid alone 24.0 µg/mL): 50.0%
Superoxide anion scavenging activity (% inhibition) ([7]; Table S7, usnic acid alone 6.0 µg/mL): 32.0%
Superoxide anion scavenging activity (% inhibition) ([7]; Table S7, usnic acid alone 12.0 µg/mL): 40.0%
Superoxide anion scavenging activity (% inhibition) ([7]; Table S7, usnic acid alone 18.0 µg/mL): 46.0%
Superoxide anion scavenging activity (% inhibition) ([7]; Table S7, usnic acid alone 24.0 µg/mL): 50.0%
in vivo SPF [9]: 4.1
